Experimental findings from PubChem BioAssay (NCI) are described below.

The structures appear in SMILES notation.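 Method: 48-hour compound exposure of cells in 96-well plates, five concentrations, linear interpolation of endpoints. GI50 = concentration required for 50% inhibition of growth. TGI denotes the concentration required for complete inhibition of growth.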

Test systems include RPMI-8226 leukemia; SK-MEL-2 melanoma; COLO 205 colon; SW-620 colon; SK-MEL-28 melanoma; NCI-H460 lung; HS 578T breast; SF-268 CNS.
Holding throughout (experiment): growth of human tumour cells (NCI), 48 h

On to `COc1ccc(C2C(C#N)=C(N)OC3=C2CCCc2ccc(F)cc23)cc1OC` (centres undefined), for which the GI50 with RPMI-8226 leukemia is 7.46 µM; in the test on SK-MEL-2 melanoma, 21.2 µM; in the test with COLO 205 colon it was 38.5 µM; in the test on SW-620 colon it was 12.5 µM; in the test on SK-MEL-28 melanoma, 24.5 µM; in the test on NCI-H460 lung, 20.9 µM. Also, the GI50 is 22 µM in the test with HS 578T breast and 20.1 µM with SF-268 CNS. For the same molecule, the TGI in the test with RPMI-8226 leukemia is 22.8 µM; in the test on SK-MEL-2 melanoma, 57.9 µM; in the test with COLO 205 colon, over 95.8 µM; with SW-620 colon it was 30.3 µM; in the test on SK-MEL-28 melanoma, over 62.4 µM; in the test on NCI-H460 lung, 54.4 µM. The TGI was 51.5 µM in the test with HS 578T breast and 48.5 µM with SF-268 CNS.
As for `CNc1nc(NC2CCCC2)nc(Sc2ccc(OC)cc2)n1`, the GI50 in the test with RPMI-8226 leukemia, in the test on SK-MEL-2 melanoma, with COLO 205 colon, with SW-620 colon, in the test on SK-MEL-28 melanoma and in the test with NCI-H460 lung was over 10 µM in each case. Besides, the GI50 with HS 578T breast and in the test with SF-268 CNS was over 10 µM throughout. Further, the TGI in the test on RPMI-8226 leukemia, in the test on SK-MEL-2 melanoma, in the test with COLO 205 colon, in the test with SW-620 colon, in the test on SK-MEL-28 melanoma and with NCI-H460 lung was over 10 µM each time. Also, the TGI in the test with HS 578T breast and in the test with SF-268 CNS was over 10 µM each time.
For the molecule `Nc1ccc(SC23CC4CC(CC(C4)C2)C3)cc1`, the TGI in the test on RPMI-8226 leukemia, in the test on SK-MEL-2 melanoma, with COLO 205 colon, with SW-620 colon, with SK-MEL-28 melanoma and in the test with NCI-H460 lung was over 100 µM in each case. The TGI in the test with HS 578T breast and with SF-268 CNS was over 100 µM in each case.
Regarding `CC(=O)n1c(-c2ccc(Cl)cc2)nc2c(c1=O)C(c1ccc(Cl)cc1)c1sc3c(Cl)cccc3c1O2` (centres undefined), the GI50 with RPMI-8226 leukemia is 0.504 µM; in the test with SK-MEL-2 melanoma, 0.482 µM; with COLO 205 colon, 0.364 µM; in the test with SW-620 colon it was 0.388 µM; in the test with SK-MEL-28 melanoma, 1.1 µM; with NCI-H460 lung, 0.365 µM. The GI50 in the test with HS 578T breast is 0.396 µM; in the test with SF-268 CNS, 0.684 µM. Also, the TGI was found to be 4.75 µM with RPMI-8226 leukemia; 2.15 µM with SK-MEL-2 melanoma; 1.57 µM with COLO 205 colon; 1.68 µM in the test on SW-620 colon; 3.15 µM in the test on SK-MEL-28 melanoma; 1.39 µM with NCI-H460 lung. The TGI is 3.23 µM with HS 578T breast and 3.24 µM with SF-268 CNS.
As to `C=CC(=O)N1CCN(c2ncnc3c(F)c(-c4c(O)cccc4F)c(Cl)cc23)CC1`, the GI50 in the test on RPMI-8226 leukemia is 5.69 µM; in the test on SK-MEL-2 melanoma, 15 µM; with COLO 205 colon, 17.5 µM; in the test with SW-620 colon it was 14 µM; in the test on SK-MEL-28 melanoma it was 13.3 µM; in the test with NCI-H460 lung, 14.8 µM. Moreover, the GI50 in the test with HS 578T breast is 19 µM; in the test with SF-268 CNS, 11.5 µM. Also, the TGI turned out to be 36.6 µM in the test with RPMI-8226 leukemia; 35 µM in the test on SK-MEL-2 melanoma; 37.5 µM with COLO 205 colon; 31.9 µM in the test with SW-620 colon; 26 µM in the test on SK-MEL-28 melanoma; 33.5 µM with NCI-H460 lung. Further, the values for the TGI in the test with HS 578T breast and with SF-268 CNS were 66.4 µM and 37.2 µM, respectively.
`C[C@H]1CCC/C=C/[C@@H]2C[C@H](N)C[C@H]2[C@H](O)/C=C/C(=O)O1`: the GI50 in the test on RPMI-8226 leukemia, in the test on SK-MEL-2 melanoma, in the test with COLO 205 colon, in the test with SW-620 colon, in the test on SK-MEL-28 melanoma and in the test on NCI-H460 lung was over 100 µM throughout. In addition, the GI50 in the test with HS 578T breast and in the test with SF-268 CNS was over 100 µM in each case. The TGI with RPMI-8226 leukemia, in the test on SK-MEL-2 melanoma, in the test on COLO 205 colon, with SW-620 colon, in the test with SK-MEL-28 melanoma and in the test on NCI-H460 lung was over 100 µM in each case. For the same molecule, the TGI in the test with HS 578T breast and with SF-268 CNS was over 100 µM in each case.
`Cn1c(N)nc2c(nc(OCc3ccccc3)n2C2OC(CO)C(O)C2O)c1=O` (centres undefined): the TGI in the test on RPMI-8226 leukemia, with SK-MEL-2 melanoma, in the test on COLO 205 colon, in the test with SW-620 colon, in the test on SK-MEL-28 melanoma and with NCI-H460 lung was over 100 µM each time. In addition, the TGI in the test with HS 578T breast and in the test on SF-268 CNS was over 100 µM each time.
Turning to `C=CC(=O)Nc1cccc(Nc2nc(Nc3ccc(OCCOC)cc3)ncc2F)c1`, the GI50 is 3.28 µM in the test with RPMI-8226 leukemia; 1.9 µM in the test on SK-MEL-2 melanoma; 2.39 µM with COLO 205 colon; 2.14 µM with SW-620 colon; 5.62 µM in the test on SK-MEL-28 melanoma; 2.28 µM in the test on NCI-H460 lung. Moreover, the GI50 in the test with HS 578T breast was 1.17 µM; in the test with SF-268 CNS, 2.06 µM. The TGI was determined as 23.3 µM in the test with RPMI-8226 leukemia; 8.65 µM in the test with SK-MEL-2 melanoma; 11 µM in the test with COLO 205 colon; 22.3 µM with SW-620 colon; 24.4 µM in the test with SK-MEL-28 melanoma; 14.5 µM in the test on NCI-H460 lung. Besides, the TGI with HS 578T breast amounted to 6.97 µM; in the test on SF-268 CNS, 16 µM.
`CNC(=O)c1ccc(-c2cnc3ncc(Cc4ccc5ncccc5c4)n3n2)cc1F`: the GI50 is over 100 µM in the test with RPMI-8226 leukemia; 97.1 µM with SK-MEL-2 melanoma; over 100 µM in the test on COLO 205 colon; over 100 µM in the test on SW-620 colon; over 100 µM with SK-MEL-28 melanoma; over 100 µM in the test with NCI-H460 lung. The GI50 was 62.7 µM in the test with HS 578T breast and 83 µM with SF-268 CNS. Further, the TGI in the test with RPMI-8226 leukemia, in the test on SK-MEL-2 melanoma, in the test with COLO 205 colon, in the test on SW-620 colon, in the test on SK-MEL-28 melanoma and in the test with NCI-H460 lung was over 100 µM in each case. Further, the TGI in the test on HS 578T breast and with SF-268 CNS was over 100 µM in each case.
On to `CN(C)CCNC(=O)Nc1c(C#N)[n+]([O-])c2cc(Cl)c(Cl)cc2[n+]1[O-]`, for which the GI50 in the test with RPMI-8226 leukemia is 8.65 µM; with SK-MEL-2 melanoma, 15.9 µM; in the test on COLO 205 colon it was 16.1 µM; in the test on SW-620 colon, 17.4 µM; with SK-MEL-28 melanoma, 34.3 µM; in the test with NCI-H460 lung it was 21.1 µM. For the same molecule, the GI50 was 33.4 µM with HS 578T breast and 9.47 µM in the test with SF-268 CNS. Further, the TGI with RPMI-8226 leukemia was over 100 µM; with SK-MEL-2 melanoma, 50.6 µM; in the test on COLO 205 colon, 46.3 µM; with SW-620 colon, 69.7 µM; in the test with SK-MEL-28 melanoma, over 100 µM; in the test on NCI-H460 lung, over 100 µM. Moreover, the TGI in the test on HS 578T breast and in the test with SF-268 CNS was over 100 µM throughout.
As for `CCCCCC(=O)Oc1ccc(/C(=C(\C)c2ccc(OC)cc2)c2ccc(OCCN3CCCCC3)cc2)cc1`, the GI50 was 3.24 µM in the test with RPMI-8226 leukemia; 10.5 µM in the test on SK-MEL-2 melanoma; 2.02 µM with COLO 205 colon; 3.59 µM in the test with SW-620 colon; 3.6 µM in the test with SK-MEL-28 melanoma; 4.42 µM in the test on NCI-H460 lung. The GI50 in the test with HS 578T breast is 4.76 µM; with SF-268 CNS, 11.6 µM. Also, the TGI in the test with SK-MEL-2 melanoma is 23.8 µM; with COLO 205 colon it was 4.55 µM; with SW-620 colon, 14 µM; in the test on SK-MEL-28 melanoma, 12.8 µM; in the test with NCI-H460 lung it was 15.8 µM; with HS 578T breast, 25.1 µM. The same molecule returned a TGI in the test with SF-268 CNS of 26.9 µM.
On to `Cc1ccc(C(=O)CC(Sc2cccc(Cl)c2Cl)c2ccc(Cl)cc2)cc1C` (centres undefined), for which the GI50 with RPMI-8226 leukemia is 5.76 µM; in the test on SK-MEL-2 melanoma, 20.2 µM; with COLO 205 colon, 20.8 µM; with SW-620 colon, 17.8 µM; in the test with SK-MEL-28 melanoma, 20.5 µM; with NCI-H460 lung, 19.1 µM. The results for the GI50 in the test with HS 578T breast and with SF-268 CNS were 27.9 µM and 21.3 µM, respectively. For the same molecule, the TGI in the test on RPMI-8226 leukemia came out at 48.2 µM; with SK-MEL-2 melanoma, 39 µM; with COLO 205 colon, 46.5 µM; in the test on SW-620 colon, 36 µM; in the test on SK-MEL-28 melanoma it was 44.8 µM; in the test with NCI-H460 lung, 42.1 µM. In addition, the TGI was 75.2 µM in the test on HS 578T breast and 48.2 µM with SF-268 CNS.
With `COc1ccc2c(c1)[C@@]13CCN4CC5=CCO[C@H]6CC(=O)N2[C@H]1[C@H]6[C@H]5C[C@H]43`, the TGI in the test on RPMI-8226 leukemia, in the test with SK-MEL-2 melanoma, in the test with COLO 205 colon, in the test with SW-620 colon, in the test on SK-MEL-28 melanoma and in the test with NCI-H460 lung was over 100 µM throughout. Besides, the TGI in the test on HS 578T breast and in the test with SF-268 CNS was over 100 µM in each case.
With `COc1cc2c3c(n(CCCN4CCC(N)CC4)c(=O)c2cc1OC)-c1cc2c(cc1C3=O)OCO2`, the GI50 in the test on RPMI-8226 leukemia is 0.202 µM; with SK-MEL-2 melanoma it was 3.68 µM; with COLO 205 colon, 2.86 µM; in the test with SW-620 colon, 0.447 µM; in the test on SK-MEL-28 melanoma, 0.983 µM; in the test on NCI-H460 lung, 0.184 µM. For the same molecule, the GI50 in the test with HS 578T breast is 1.69 µM; in the test on SF-268 CNS it was 1.72 µM. Moreover, the TGI with RPMI-8226 leukemia worked out at 1.02 µM; with SK-MEL-2 melanoma, 24.2 µM; in the test with COLO 205 colon, 7.38 µM; with SW-620 colon it was 1.43 µM; in the test on SK-MEL-28 melanoma it was 2.9 µM; in the test on NCI-H460 lung it was 0.858 µM. The results for the TGI in the test on HS 578T breast and with SF-268 CNS were 11.7 µM and 8.89 µM, respectively.
